Laboratory results taken from US7070943B2 (priority 1998, dated 2006).

Key:
HL-60 cells = assay: Cell cycle arrest and apoptosis of HL-60 cells during induced differentiation; assay type: cell-based, human
Procedure: Control cells were treated with an equivalent concentration of ethanol (<0.02%). […]

pRB [1] = assay: Western blot of pRB in HL-60 cells with anti-pRB^P− and anti-pRB^T mAbs; assay type: cell-based, human; details: HL-60, treated versus control
Source text: FIG. 10 presents a Western blot showing reactivity of anti-pRB^P− mAb(A) and anti-pRB^T mAb with proteins extracted from control (CON) and PMA-treated cells.
To reveal specificity of the antibodies used in these experiments, a standard Western blotting procedure was used on cellular lysates, as described in Gong et al., Cell Growth Differ. 6:1485–1493 (1995).

total pRB [2] = assay: pRB^T in differentiating HL-60 cells, flow cytometry; assay type: cell-based, human; details: RA 5×10^−7 M 5 days, vitamin D3 10^−8 M 6 days
Procedure: (§1) The human promyelocytic leukemic cell line HL-60 was kindly provided by Dr. Harry A. Crissman of the Los Alamos National Laboratory (Los Alamos, N. Mex.). The cells were maintained in RPMI 1640 supplemented with 10% fetal calf serum, 100 units/ml penicillin, 100 μg/ml streptomycin, and 2 mM L-glutamine at a density between 2 and 8×10^5 cells/ml at 37.5° C. in the mixture of 95% air and 5% CO2 for the periods of time described in the legends to the respective figures. During the exponential phase of cell growth, at densities below 8×10^5 cells/ml, the mean duration of the cell cycle of these cells is 23 hours (estimated as described in Darzynkiewicz, “Mammalian cell cycle analysis,” in The Cell Cycle: A Practical Approach, P. Fantes and R. Brooks, Eds., pp. 45–68 (Oxford Univ. Press, Oxford, UK, (1993)), and the mean duration of G1, S, G2, and M 11, 9, 2, and 1 h, respectively. The medium, supplements, and antibiotics were obtained from Life Technologies (Grand Island, N.Y.).
(§2) All-trans retinoic acid (RA), 1,25-dihydroxy vitamin D3 (vitamin D3), and phorbol myristate acetate (PMA) were purchased from Sigma Chemical Co. (St. Louis, Mo.). […] Control cells were treated with an equivalent concentration of ethanol (<0.02%). Stock solution of PMA at 1.6 mM was prepared in DMSO, stored at −20° C. in the dark, and used at a final concentration of 4×10^−8 M. The cultures were kept shielded from light. […]
(§3) Methods were essentially as described in Example 1. […] The cells were then rinsed with PBS containing 1% BSA, counterstained with 4,6-diamidino-2-phenyl indole (DAPI) (Molecular Probes Inc., Eugene, Oreg.), and their fluorescence was measured by flow cytometry.
(§4) Cellular fluorescence was measured with the ELITE ESP flow cytometer/cell sorter (Coulter Inc., Miami, Fla.) using an argon ion laser (emission at 488 nm) combined with a helium-cadmium laser (emitting UV light). DNA content was analyzed based on DAPI fluorescence (blue emission) excited by UV light, while the anti-pRb^P− mAb (FITC)-related emission and anti-pRB^T (CYCHROME®)-related emission was excited with blue light laser. To obtain the mean fluorescence values as shown in FIGS. 7–10, the cells were gated based on differences in their DNA content to distinguish cells in G1, S, and G2/M, and from the mean values of the FITC fluorescence the mean value of the respective control cells (FITC-conjugated isotype-matched IgG1) in the same phase of the cycle was subtracted. The mean values of S phase cells were multiplied by 0.75 and of G2/M cells by 0.5 to express the pRB-associated cell fluorescence per unit of DNA. The data were normalized to the mean fluorescence value of G1 cells from the untreated, control culture (100), as shown in FIGS. 7–10.

hypophosphorylated pRB = assay: pRB^P− in differentiating HL-60 cells, flow cytometry; assay type: cell-based, human; details: RA 5×10^−7 M 5 days, vitamin D3 10^−8 M 6 days
Procedure: as §1, §2, §3, §4

underphosphorylated pRB = assay: pRB phosphorylation in mitogen-stimulated lymphocytes, anti-pRB^P− mAb flow cytometry; assay type: cell-based, Human
Procedure: (§5) Human peripheral blood lymphocytes, obtained from healthy volunteers by venipuncture, were isolated by density gradient centrifugation. The cells were washed twice with phosphate-buffered saline (PBS), resuspended in RPMI 1640 medium supplemented with 10% fetal calf serum, 100 units/ml penicillin, 100 μg/ml streptomycin and 2 mM L-glutamine at a density of 10^6 cells/ml, treated with 10 μg/ml of phytohemagglutinin (PHA) and incubated at 37.5° C. in the mixture of 95% air and 5% CO2 for the periods of time shown in the respective figure legends. The medium, supplements, and antibiotics were obtained from Life Technologies (Grand Island, N.Y.), PHA from Sigma Chemical Co. (St. Louis, Mo.).
Stock solution of staurosporine (STP; Kamiya Biomedical Co., Thousand Oaks, Calif.) was made in dimethyl sulfoxide (DMSO) at a concentration 0.2 mM and was stored at −20° C.
The cells were washed with PBS and fixed in suspension in 1% formaldehyde in PBS for 15 min on ice. The cells were then washed with PBS and resuspended in ice-cold 80% ethanol for up to 24 h. After fixation the cells were rinsed twice with PBS and resuspended in 100 μl of PBS containing 0.25% Triton X-100 (Sigma), 1% bovine serum albumin (BSA; Sigma) and 1.2 μg/ml of the anti-pRB^T mAb (clone G3-245; PharMingen cat. No. 14001A) conjugated with CYCHROME® and/or with 1 μg/ml of anti-pRB^P− mAb (clone G99-549; PharMingen cat. No. 14441A), conjugated with FITC and incubated for 2 hours at room temperature. The cells were then rinsed with PBS containing 1% BSA and their fluorescence was measured by flow cytometry.
Cellular fluorescence was measured with the ELITE ESP flow cytometer/cell sorter (Coulter Inc., Miami, Fla.) using either an argon ion laser (emission at 488 nm) alone or combined with a helium-cadmium laser (emitting UV light). In the first case, fluorescence signals were collected using the standard configuration of the flow cytometer (green fluorescence, representing FITC labeled anti-pRB^P− mAb; red fluorescence representing CyChrome tagged anti-pRB^T mAb). In the second case, DNA content was analyzed based on DAPI fluorescence (blue emission) excited by UV light, while the anti-pRB^P− mAb FITC-related emission and anti-pRB^T CYCHROME®-related emission was excited with blue light laser. Unless noted, the procedures for multicolor measurement of cellular fluorescence and multivariate cell analysis were essentially as described in Juan et al., Cell. Prolif. 29:259–266 (1996) and Juan et al., Exper. Cell Res. 227:197–202 (1996). The experiments were repeated several times, on lymphocytes obtained from three different donors, yielding essentially identical results.

cyclin D3 [3] = details: lymphocytes, 20 nM; cited from earlier work
lymphocytes = details: 20 nM; cited from earlier work
cyclin D3 [4] = assay: Cyclin D3 expression in mitogen-stimulated lymphocytes, flow cytometry; assay type: cell-based, Human; details: 10 μg/ml
Procedure: as §5
After cell fixation (as described above) the cells were washed twice with PBS, suspended in 1 ml of 0.25% Triton X-100 in PBS, kept on ice for 5 min, centrifuged (300 g; 5 min) and the cell pellet resuspended in 100 μl of PBS containing 0.5 μg of the anti-cyclin D3 mAb (clone G107-565, mouse IgG,; PharMingen cat. No. 14781) and 1% BSA and incubated for 2 hours at room temperature. […] The cells were rinsed again, resuspended in 5 μg/ml of PI and 0.1% RNase in PBS and incubated at room temperature for 20 min prior to fluorescence measurements. Isotype-matched IgG (Sigma) was used as a control to define the background fluorescence. […]

total pRB [5] = assay: Total pRB in mitogen-stimulated lymphocytes, anti-pRB^T mAb flow cytometry; assay type: cell-based, Human; details: 10 μg/ml, throughout all times of exposure
Procedure: as §5
The cells were washed with PBS and fixed in suspension in 1% formaldehyde in PBS for 15 min on ice. […] The cells were then rinsed with PBS containing 1% BSA and their fluorescence was measured by flow cytometry.
Cellular fluorescence was measured with the ELITE ESP flow cytometer/cell sorter (Coulter Inc., Miami, Fla.) using either an argon ion laser (emission at 488 nm) alone or combined with a helium-cadmium laser (emitting UV light). In the first case, fluorescence signals were collected using the standard configuration of the flow cytometer (green fluorescence, representing FITC labeled anti-pRB^P− mAb; red fluorescence representing CyChrome tagged anti-pRB^T mAb). […]

pRB [6] = assay: pRB^P−/pRB^T ratio in differentiating HL-60 cells, flow cytometry; assay type: cell-based, human; details: RA 5×10^−7 M 5 days, vitamin D3 10^−8 M 6 days
Procedure: Briefly, the cells were fixed in suspension in 1% formaldehyde in PBS for 15 min on ice, then washed with PBS, and resuspended in ice-cold 80% ethanol for up to 24 h. […] The cells were then rinsed with PBS containing 1% BSA, counterstained with 4,6-diamidino-2-phenyl indole (DAPI) (Molecular Probes Inc., Eugene, Oreg.), and their fluorescence was measured by flow cytometry.

CCCCCCCCCCCCCC(=O)O[C@@H]1[C@@H](C)[C@@]2(O)[C@@H](C=C(CO)C[C@]3(O)C(=O)C(C)=C[C@@H]23)[C@@H]2C(C)(C)[C@]12OC(C)=O [PMA, phorbol myristate acetate]
cell cycle arrest on induced differentiation (HL-60 cells): cell arrest primarily in G0/1
bands of hypophosphorylated, hyperphosphorylated and total pRB, Western blot (pRB [1]): increased intensity bands

C=C1/C(=C\C=C2/CCC[C@]3(C)[C@@H]([C@H](C)CCCC(C)(C)O)CC[C@@H]23)C[C@@H](O)C[C@@H]1O [vitamin D3, 1,25-dihydroxy vitamin D3]
cell cycle arrest on induced differentiation (HL-60 cells): cell arrest primarily in G0/1
increase in pRB^T of G0/1 cells versus untreated cultures (total pRB [2]): 20%
pRB^T of S and G2/M cells versus untreated cultures (total pRB [2]): nearly twofold higher
increase in pRB^P− of G0/1 cells (hypophosphorylated pRB): fourfold
pRB^P− of S and G2/M phase cells versus control cultures (hypophosphorylated pRB): over an order of magnitude higher

CN[C@@H]1C[C@H]2O[C@@](C)([C@@H]1OC)n1c3ccccc3c3c4c(c5c6ccccc6n2c5c31)C(=O)NC4 [STP, staurosporine]
appearance of the cell population unreactive with anti-pRB^P− mAb (pRB phosphorylation) (underphosphorylated pRB; lymphocytes stimulated with PHA 24 hours, 20 nM): precluded the appearance of the cell population unreactive with anti-pRB^P− mAb
induction of cyclin D3 (cyclin D3 [3]): does not interfere with the induction of cyclin D3
arrest of lymphocytes in cell cycle (lymphocytes): arrests lymphocytes in G1

phytohemagglutinin [PHA]
proportion of cyclin D3-positive cells (cyclin D3 [4]; at 12 h): ~70%
proportion of cyclin D3-positive cells (cyclin D3 [4]; at 24 h): 40%
frequency of cells reactive with anti-pRB^T mAb (total pRB [5]): over 80%
percentage of anti-pRB^P− mAb negative cells (underphosphorylated pRB; 10 μg/ml, at 24 h): 45%
fraction of lymphocytes that did not react with anti-pRB^P− mAb (underphosphorylated pRB; 10 μg/ml, between 4 and 12 hours): ~80%
percentage of anti-pRB^P− mAb negative cells (underphosphorylated pRB; 10 μg/ml, decreasing from 98 between 3 and 4 hours of stimulation): about 20%
percentage of anti-pRB^P− mAb negative cells (underphosphorylated pRB; 10 μg/ml, up to 14 h): about 20%

CC1=C(/C=C/C(C)=C/C=C/C(C)=C/C(=O)O)C(C)(C)CCC1 [RA, All-trans retinoic acid]
pRB^P−/pRB^T level of S and G2/M phase cells versus control (pRB [6]): over fivefold higher
cell cycle arrest on induced differentiation (HL-60 cells): cell arrest primarily in G0/1
increase in pRB^T of G0/1 cells versus untreated cultures (total pRB [2]): 60%
pRB^T of S and G2/M cells versus untreated cultures (total pRB [2]): nearly twofold higher
increase in pRB^P− of G0/1 cells (hypophosphorylated pRB): fourfold
pRB^P− of S and G2/M phase cells versus control cultures (hypophosphorylated pRB): over an order of magnitude higher
